Measured values as given in patent publication US7671054B1, “Reverse-turn mimetics and method relating thereto” (Choongwae Pharma Corporation, priority 2001, dated 2010).

System: TCF4/β-catenin transcription (TOPFlash) in SW480 cells
Test: Reporter gene assay (TOPFlash luciferase)
Format: cell-based
Conditions: Homo sapiens, SW480, Table 4; Reporter gene assay as described in Example 6; read-out: IC50
Experimental: SW480 cells were transfected with the usage of Superfect™ transfect reagent (Qiagen, 301307). Cells were trypsinized briefly 1 day before transfection and plated on 6 well plate (5×10^5 cells/well) so that they were 50-80% confluent on the day of transfection.
Four microgram (TOPFlash) and one microgram (pRL-null) of DNAs were diluted in 150 μl of serum-free medium, and 30 μl of Superfect™ transfect reagent was added. The DNA-Superfect mixture was incubated at room temperature for 15 min, and then, 1 ml of 10% FBS DMEM was added to this complex for an additional 3 hours of incubation. While complexes were forming, cells were washed with PBS twice without antibiotics.
The DNA-Superfect™ transfect reagent complexes were applied to the cells before incubating at 37° C. at 5% CO2 for 3 hours. After incubation, recovery medium with 10% FBS was added to bring the final volume to 1.18 ml. After 3 hours incubation, the cells were harvested and reseeded to 96 well plate (3×10^4 cells/well). After overnight incubation at 37° C. at 5% CO2, the cells were treated with Compound A for 24 hours. Finally, the activity was checked by means of luciferase assay (Promega, E1960).

IC50 [µM]	Compound
1.1 ± 0.2	C=CCN1CC(=O)N2[C@@H](Cc3ccc(O)cc3)C(=O)N(Cc3ccccc3)C[C@@H]2N1C(=O)NCc1ccccc1 [Compound 164]
3.8 ± 1.2	CN1CC(=O)N2[C@@H](Cc3ccc(O)cc3)C(=O)N(Cc3cccc4cnn(Cc5cccc(N)c5)c34)C[C@@H]2N1C(=O)NCc1ccccc1 [Compound 92]
12.6	Cc1ccc(CC2C(=O)N(CCc3ccccc3)CC3N2C(=O)CN(C)N3C(=O)Nc2ccc(C(F)(F)F)cc2)cc1 (stereo not drawn) [Compound 2]
0.1 ± 0.1	C=CCN1CC(=O)N2[C@@H](Cc3ccc(O)cc3)C(=O)N(Cc3cccc4sc(N)nc34)C[C@@H]2N1C(=O)NCc1ccccc1 [Compound 225]
6.8 ± 1.3	C#CCn1ncc2ccc(CN3C[C@H]4N(C(=O)CN(C)N4C(=O)NCc4ccccc4)[C@@H](Cc4ccc(O)cc4)C3=O)cc21 [Compound 93]
66.1 ± 6.8	CN1CC(=O)N2[C@@H](Cc3ccc(O)cc3)C(=O)N(Cc3ccc(F)cc3F)[C@@H](COC=O)[C@@H]2N1C(=O)NCc1ccccc1 [Compound 81]
3.5 ± 0.7	C=CCN1CC(=O)N2[C@@H](Cc3ccc(O)cc3)C(=O)N(Cc3ccc(C)c(N4CCOCC4)c3)C[C@@H]2N1C(=O)NCc1ccccc1 [Compound 133]
3.8 ± 0.6	C#CCN1CC(=O)N2[C@@H](Cc3ccc(O)cc3)C(=O)N(Cc3ccc(Cl)c(N(C)C)c3)C[C@@H]2N1C(=O)NCc1ccccc1 [Compound 110]
13.3 ± 1.6	C=CCN1CC(=O)N2[C@@H](Cc3ccc(O)cc3)C(=O)N(Cc3cc(N(C)C(C)C)cc(C(F)(F)F)c3)C[C@@H]2N1C(=O)NCc1ccccc1 [Compound 156]
46.4 ± 3.7	C[C@@H]1[C@H]2N(C(=O)CN(C)N2C(=O)NCc2ccccc2)[C@@H](Cc2ccc(O)cc2)C(=O)N1Cc1ccc(Cl)c(N(C)C)c1 [Compound 83]
4.6 ± 0.4	CN1CC(=O)N2[C@@H](Cc3ccc(O)cc3)C(=O)N(Cc3cccc4cnn(Cc5ccc(N)cc5)c34)C[C@@H]2N1C(=O)NCc1ccccc1 [Compound 104]
1.5 ± 0.5	C=CCN1CC(=O)N2C(Cc3ccc(O)cc3)C(=O)N(Cc3ccc(F)cc3F)CC2N1C(=O)NCc1ccccc1 (stereo not drawn) [Compound 170]
4.2 ± 0.1	CCCN1CC(=O)N2[C@@H](Cc3ccc(O)cc3)C(=O)N(Cc3ccc(F)cc3F)C[C@@H]2N1C(=O)NCc1ccccc1 [Compound 157]
6.7	CN1CC(=O)N2C(CN(Cc3cccc(F)c3)C(=O)[C@@H]2Cc2ccc(O)cc2)N1C(=O)NCc1ccccc1 (stereo partly drawn) [Compound 9]
3.2 ± 0.4	C=CCN1CC(=O)N2[C@@H](Cc3ccc(O)cc3)C(=O)N(Cc3cccc(N(C)C(=O)CCCCC)c3)C[C@@H]2N1C(=O)NCc1ccccc1 [Compound 194]
9.8 ± 0.7	CCN1CC(=O)N2[C@@H](Cc3ccc(O)cc3)C(=O)N(Cc3ccc(Cl)c(N(C)C)c3)C[C@@H]2N1C(=O)NCc1ccccc1 [Compound 125]
34.4 ± 4.9	CN(Cc1cccc(CN2C[C@H]3N(C(=O)CN(C)N3C(=O)NCc3ccccc3)[C@@H](Cc3ccc(O)cc3)C2=O)c1)C1CCOCC1 [Compound 120]
1.1 ± 0.2	C=CCN1CC(=O)N2[C@@H](Cc3ccc(O)cc3)C(=O)N(Cc3ccc4c(c3)OCCO4)C[C@@H]2N1C(=O)NCc1ccccc1 [Compound 187]
4.4	CN1CC(=O)N2[C@@H](Cc3ccc(O)cc3)C(=O)N(Cc3cccc4nccnc34)C[C@@H]2N1C(=O)NCc1ccccc1 [Compound 34]
13.6	Cc1ccc([C@@H](C)N2C[C@H]3N(C(=O)CN(C)N3C(=O)NCc3ccccc3)[C@@H](Cc3ccc(O)cc3)C2=O)cc1 [Compound 41]
7.2 ± 2.5	CN1CC(=O)N2[C@@H](Cc3ccc(O)cc3)C(=O)N(Cc3ccc4ncsc4c3)C[C@@H]2N1C(=O)NCc1ccccc1 [Compound 77]
1.8 ± 0.6	C=CCN1CC(=O)N2[C@@H](Cc3ccc(O)cc3)C(=O)N(Cc3cc(F)c(F)cc3N(C)C)C[C@@H]2N1C(=O)NCc1ccccc1 [Compound 162]
1.8 ± 0.3	C#CCN1CC(=O)N2[C@@H](Cc3ccc(O)cc3)C(=O)N(Cc3ccc4ncsc4c3)C[C@@H]2N1C(=O)NCc1ccccc1 [Compound 141]
6.4	CN1CC(=O)N2C(CN(Cc3ccc(F)cc3F)C(=O)[C@@H]2Cc2ccc(O)cc2)N1C(=O)NCc1ccccc1 (stereo partly drawn) [Compound 13]
11.5	CN1CC(=O)N2C(CN(Cc3ccc(Cl)cc3Cl)C(=O)[C@@H]2Cc2ccc(O)cc2)N1C(=O)NCc1ccccc1 (stereo partly drawn) [Compound 19]
3.5 ± 0.3	CCCN1CC(=O)N2[C@@H](Cc3ccc(O)cc3)C(=O)N(Cc3ccccc3)C[C@@H]2N1C(=O)NCc1ccccc1 [Compound 168]

IC50 [µM]	Compound
8.8 ± 1.9	CN1CC(=O)N2[C@@H](Cc3ccc(O)cc3)C(=O)N(Cc3cccc4[nH]ncc34)C[C@@H]2N1C(=O)NCc1ccccc1 [Compound 70]
2.1 ± 0.4	CCCN1CC(=O)N2[C@@H](Cc3ccc(O)cc3)C(=O)N(Cc3cccc4cccnc34)C[C@@H]2N1C(=O)NCc1ccccc1 [Compound 122]
9.9 ± 2.6	CN1CC(=O)N2[C@@H](Cc3ccc(O)cc3)C(=O)N(Cc3ccc4cnn(Cc5ccccc5N)c4c3)C[C@@H]2N1C(=O)NCc1ccccc1 [Compound 86]
1.6 ± 0.4	C=CCN1CC(=O)N2[C@@H](Cc3ccc(O)cc3)C(=O)N(Cc3ccc4ncsc4c3)C[C@@H]2N1C(=O)NCc1ccccc1 [Compound 142]
2.9 ± 0.4	[2H]c1cc(O)cc([2H])c1C[C@H]1C(=O)N(Cc2cccc3ccccc23)C[C@H]2N1C(=O)CN(C)N2C(=O)NCc1ccccc1 [Compound 172]
16.7 ± 1.4	C#CCN1CC(=O)N2[C@@H](Cc3ccc(O)cc3)C(=O)N(Cc3ccc4c(c3)OCCN4C)C[C@@H]2N1C(=O)NCc1ccccc1 [Compound 146]
25.8	C[C@H](c1cccc(N(C)C)c1)N1C[C@H]2N(C(=O)CN(C)N2C(=O)NCc2ccccc2)[C@@H](Cc2ccc(O)cc2)C1=O [Compound 61]
3.6 ± 0.3	C=CCN1CC(=O)N2[C@@H](Cc3ccc(O)c(F)c3)C(=O)N(Cc3ccc(F)cc3)C[C@@H]2N1C(=O)NCc1ccccc1 [Compound 186]
2.7 ± 0.2	C=CCN1CC(=O)N2[C@@H](Cc3ccc(NC=O)cc3)C(=O)N(Cc3ccc(F)cc3F)C[C@@H]2N1C(=O)NCc1ccccc1 [Compound 159]
7.1	COc1ccccc1CN1C[C@H]2N(C(=O)CN(C)N2C(=O)NCc2ccccc2)[C@@H](Cc2ccc(O)cc2)C1=O [Compound 26]
11.7 ± 1	CCN1CC(=O)N2[C@@H](Cc3ccc(O)cc3)C(=O)N(Cc3cccc(N4CCOCC4)c3)C[C@@H]2N1C(=O)NCc1ccccc1 [Compound 123]
2.3 ± 0.5	C=CCN1CC(=O)N2[C@@H](Cc3ccc(O)cc3)C(=O)N(Cc3cccc(OCCN4CCOCC4)c3)C[C@@H]2N1C(=O)NCc1ccccc1 [Compound 132]
6.9 ± 0.6	CN1CC(=O)N2[C@@H](Cc3ccc(O)cc3)C(=O)N(Cc3cccc(N4CCOCC4)c3)C[C@@H]2N1C(=O)NCc1ccccc1 [Compound 117]
18.2	CN(C)c1cccc(F)c1CN1C[C@H]2N(C(=O)CN(C)N2C(=O)NCc2ccccc2)[C@@H](Cc2ccc(O)cc2)C1=O [Compound 42]
2.2 ± 0.2	CN1CC(=O)N2[C@@H](Cc3ccc(O)cc3)C(=O)N(Cc3cccc4c3cnn4Cc3ccccc3N)C[C@@H]2N1C(=O)NCc1ccccc1 [Compound 88]
5.4 ± 0.5	C=CCN1CC(=O)N2[C@@H](Cc3ccc(O)cc3)C(=O)N(Cc3ccc(F)cc3F)C[C@@H]2N1C(=O)NCc1ccc(F)cc1 [Compound 175]
4.1 ± 0.8	C#CCN1CC(=O)N2[C@@H](Cc3ccc(O)cc3)C(=O)N(Cc3cccc4c3cnn4CCN3CCOCC3)C[C@@H]2N1C(=O)NCc1ccccc1 [Compound 112]
3.9	CN(Cc1ccccc1N)c1cccc(CN2C[C@H]3N(C(=O)CN(C)N3C(=O)NCc3ccccc3)[C@@H](Cc3ccc(O)cc3)C2=O)c1 [Compound 90]
4.3 ± 0.9	C[C@H]1[C@H]2N(C(=O)CN(C)N2C(=O)NCc2ccccc2)[C@@H](Cc2ccc(O)cc2)C(=O)N1Cc1cccc(N(C)C)c1 [Compound 78]
10.3 ± 1.5	CCCN1CC(=O)N2[C@@H](Cc3ccc(O)cc3)C(=O)N(Cc3ccc(Cl)c(N(C)C)c3)C[C@@H]2N1C(=O)NCc1ccccc1 [Compound 126]
68.1 ± 8.9	CN1CC(=O)N2[C@@H](Cc3ccc(O)cc3)C(=O)N(Cc3ccc(F)cc3F)[C@@H](CO)[C@@H]2N1C(=O)NCc1ccccc1 [Compound 82]
13.9 ± 0.9	CN1CC(=O)N2[C@@H](Cc3ccc(O)cc3)C(=O)N(Cc3ccc4cn[nH]c4c3)C[C@@H]2N1C(=O)NCc1ccccc1 [Compound 89]
1.6 ± 0.2	C=CCN1CC(=O)N2[C@@H](Cc3ccc(O)c(F)c3)C(=O)N(Cc3cccc4scnc34)C[C@@H]2N1C(=O)NCc1ccccc1 [Compound 216]
1.1 ± 0.1	C=CCN1CC(=O)N2[C@@H](Cc3ccc(O)cc3)C(=O)N(Cc3ccc(Cl)c(N4CCOCC4)c3)C[C@@H]2N1C(=O)NCc1ccccc1 [Compound 139]
16.6 ± 2.7	C#CCn1ncc2cccc(CN3C[C@H]4N(C(=O)CN(C)N4C(=O)NCc4ccccc4)[C@@H](Cc4ccc(O)cc4)C3=O)c21 [Compound 105]

Compound	IC50 [µM]
CCOP(=O)(CC(=O)Nc1ccc(C[C@H]2C(=O)N(Cc3cccc4ccccc34)C[C@H]3N2C(=O)CN(C)N3C(=O)NCc2ccccc2)cc1)OCC [Compound 84]	46.7 ± 6.7
C=CCN1CC(=O)N2[C@@H](Cc3ccc(OP(=O)(O)O)cc3)C(=O)N(Cc3ccc(OC)cc3)C[C@@H]2N1C(=O)NCc1ccccc1 [Compound 209]	1.9 ± 0.5
CN1CC(=O)N2[C@@H](Cc3ccc(O)cc3)C(=O)N(Cc3ccccc3C(F)(F)F)C[C@@H]2N1C(=O)NCc1ccccc1 [Compound 32]	4.1
